# US20050031597A1, “Cells and improved method for preserving cells” (priority 2003, published 2005)
# Legend:
# Assay type in all cases: cell-based
# erythrocytic cells [1] = assay: ATP level of erythrocytic cells
# Description: (§1) Levels of ATP and DPG may be measured or assayed in biological samples (e.g., in cells) by any suitable means or procedure. By way of example only, levels of ATP and DPG may be measured or assayed in biological samples (e.g., in cells) by using Sigma Diagnostic (Sigma Aldrich Chemicals, St. Louis, Mo.) assay kits (cat. # for ATP assay 366 and 366-A, and for 2,3-DPG assay 35-A) designed for determination of ATP and 2,3-DPG in biological samples (e.g., red blood cells). By further way of example only, biological samples (e.g., cells) may be lysed using 12% and 8% trichloracetic acid for ATP and 2,3-DPG determination, respectively. ATP may be quantified enzymatically by catalyzing ATP to ADP in the presence of 3-phosphoglycerate (3-PGA) using phosphoglycerate phosphokinase (PGK) and the resulting 1,3-diphosphoglycerate induced oxidation of NADH to NAD using glyceraldehyde phosphate dehydrogenase (GAPD) present in the assay media. The level of NADH may be monitored spectrophotometrically at 340 nm which corresponds directly with the ATP level. 2,3-DPG may be hydrolyzed by 2,3-DPG phosphatase to 3-PGA and inorganic phosphorus in the presence of 2-phosphoglycolic acid as a stimulator. 3-PGA reacts with ATP in the presence of PGK and the subsequent steps follow the above protocol used for ATP quantification. […]
# erythrocytic cells [2] = assay: 2,3-DPG level of erythrocytic cells
# Description: as §1
# erythrocytic cells [3] = assay: Mean corpuscular hemoglobin of trehalose-loaded, freeze-dried and rehydrated erythrocytic cells
# Procedure: The cells had been loaded in media with different trehalose concentration (400 mM trehalose, 500 mM trehalose, 600 mM trehalose, 700 mM trehalose and 800 mm trehalose) in 100 mOsm PBS pH 7.2. The cells were freeze-dried in 300 mM trehalose in 100 mOsm PBS, 15% HES and 2.54% HSA and rehydrated in a buffer containing 188 mM trehalose, 15% HES and 2.5% HSA.
# erythrocytic cells [4] = assay: Osmotic fragility index of trehalose-loaded erythrocytic cells
# Procedure: FIG. 6 graphically illustrates the fragility index of erythrocytic cells incubated overnight at respective temperatures of 4° C. and 37° C. in the presence of and as a function of increasing intracellular trehalose concentrations. The osmotic fragility index was generated by the extent of hemolysis as a function of the NaCl concentration. The erythrocytic cells that had been loaded in trehalose solutions (between 250 mM and 1000 mM) in 100 mOsm PBS were suspended in increasing concentrations of NaCl (between 50 and 600 mOsm NaCl). The percent hemolysis measured after resuspending the loaded cells in NaCl represents the fragility index.
# erythrocytic cells [5] = assay: Percent hemolysis of erythrocytic cells during loading or incubation; details: for percent hemolysis: 800 mM trehalose, 100 mOsm ADSOL, 6.6 mM K-phosphate
# Procedure: FIG. 9 graphically illustrates % hemolysis of loaded cells as a function of time (hours) of incubation in 300 mOsm PBS pH 7.2. The erythrocytic cells were loaded in 700 mM trehalose in 100 mOsm PBS pH 7.2 at 35° C. for 16 hours. After the loading step, the cells were incubated in 300 mOsm PBS pH 7.2 between 1 and 25 hours. This buffer was used for washing the loaded cells and it was important to determine the stability of the loaded cells when they were suspended in this buffer. Cell stability was assessed by measuring the percent hemolysis over the course of 25 hours. […] Between 7 and 25 hours, there was only a small change in the percent hemolysis (from about 25% to about 30%).
# FIG. 10 graphically illustrates time course (incubation time, hours) of hemolysis(%) of trehalose-loaded cells as a function of the composition of the incubation buffer. Erythrocytic cells were loaded in 700 mM trehalose in 100 mOsm PBS pH 7.2 for 16 hours at 35° C. They were washed with 300 mOsm PBS pH 7.2 and were subsequently transferred to storage media with increasing trehalose concentrations (between 100 mM and 300 mM trehalose) added to 100 mOsm PBS pH 7.2. The percent hemolysis was measured over the course of 3 hours. […]
# At 23° C., the percent hemolysis increases to 7% during 6 hours of incubation. At 37° C., between 10 and 12% hemolysis is observed during incubation of erythrocytic cells between 6 and 9 hours. […] Such intracellular concentration of trehalose provides high survival of erythrocytic cells after freeze-drying and rehydration, therefore these conditions (incubation in trehalose medium between 6 and 9 hours at 37° C.) can be used for loading erythrocytic cells.
smiles,measurement,setting,value
OC[C@H]1O[C@H](O[C@H]2O[C@H](CO)[C@@H](O)[C@H](O)[C@H]2O)[C@H](O)[C@@H](O)[C@@H]1O [trehalose],level of ATP,"erythrocytic cells [1]; 37° C., during 16 hours of incubation",does not decrease
same,level of ATP,"erythrocytic cells [1]; trehalose solute solution, about 37° C., about 0 to about 7 hours, increases from about 4.0",about 4.5 μmol/gHb
same,"level of 2,3-DPG","erythrocytic cells [2]; 37° C., first 7 hours of incubation",high
same,"level of 2,3-DPG",erythrocytic cells [2]; 7 hours incubation at about 37° C. in a trehalose containing solution,about 8.5 μmol/gHb
same,mean corpuscular hemoglobin in rehydrated cells,erythrocytic cells [3]; cells loaded in 400 mM trehalose,about 7 pg
same,mean corpuscular hemoglobin in rehydrated cells,erythrocytic cells [3]; cells loaded in 800 mM trehalose,about 14 pg
same,MCH,erythrocytic cells [3]; intracellular trehalose about 40 mM to about 42 mM,about 9 pg
same,MCH,erythrocytic cells [3]; intracellular trehalose about 60 mM,greater than 14 pg
same,osmotic fragility,erythrocytic cells [4]; 1000 mM trehalose in 100 mOsm PBS at 37° C.,unstable
same,osmotic fragility,"erythrocytic cells [4]; trehalose media between 250 mM and 800 mM in 100 mOsm PBS, 37° C. and 4° C.",stable osmotically
same,percent hemolysis,"erythrocytic cells [5]; 23° C., 6 hours",7%
same,percent hemolysis,"erythrocytic cells [5]; 23° C., nine(9) hours",about 7%
same,percent hemolysis,"erythrocytic cells [5]; 37° C., nine(9) hours",about 12%
same,hemolysis (%) to incubation (hours) hemolysis gradient,erythrocytic cells [5]; about 23° C.,about 0.38
same,hemolysis (%) to incubation (hours) hemolysis gradient,"erythrocytic cells [5]; about 37° C., about nine(9) hours",about 0.25
same,percent hemolysis of trehalose-loaded cells,"erythrocytic cells [5]; loaded in 700 mM trehalose/100 mOsm PBS 35° C. 16 hours, start of incubation in 300 mOsm PBS pH 7.2",about 7%
same,percent hemolysis of trehalose-loaded cells,"erythrocytic cells [5]; loaded in 700 mM trehalose/100 mOsm PBS, 7 hours in 300 mOsm PBS pH 7.2",about 25%
same,percent hemolysis of trehalose-loaded cells,"erythrocytic cells [5]; loaded in 700 mM trehalose/100 mOsm PBS, 25 hours in 300 mOsm PBS pH 7.2",about 30%
same,percent hemolysis of trehalose-loaded cells,"erythrocytic cells [5]; storage medium 300 mM trehalose in 100 mOsm PBS, over the course of 3 hours",about 4%
